Measurements reported in patent US20240263133A1, “PROCESS FOR THE ISOLATION AND CULTURE OF STRAINS, THE STRAINS, USE THEREOF, MEDIA FOR CULTURING THEREOF AND A FORM OF SCYTONEMIN” (UVERA SA, priority 2021, published 2024).

What was measured:
[1] = Degree of scytonemin dispersion in selected solutions used in cosmetics; assay type: physicochemical; settings: for dispersion level: shaker 1 min, ultrasonic bath 10 min
Experimental: 0.5 mg scytonemin was weighed out on an analytical balance and suspended in 1 g of the solution: • 1) Propylene glycol (INCI: Propylene Glycol) • 2) Refined apricot oil (INCI: Prunus Armeniaca (Apricot) Kernel Oil) • 3) Glycerin (INCI: Glycerin) • 4) Isohexadecane (INCI: Isohexadecane) • 5) 2-octyldodecan-1-ol ODD (INCI: Octyldodecanol) • 6) SLP Emulsifier (INCI: Sorbitan Laurate/Polyglyceryl-4 Laurate/Dilauryl Citrate)
Subsequently, the sample was mixed using a shaker for approx. 1 min and maintained for 10 min in an ultrasonic bath to achieve a higher dispersion level.
0.5 mg of scytonemin was weighed out on an analytical balance and suspended in 5 g of the composition: • 7) glycerin+glycerol stearate+water+silica+alcohol
The sample was stirred for 5 min using a laboratory stirrer

[2] = Storage stability in room conditions, absorbance spectra before and after; assay type: physicochemical; settings: 25° C., 10 months
Experimental: The compound prepared in Example 1 was stored in room conditions (temp. 25° C.) for 10 months. Absorbance spectra before and after the storage test are identical, which confirms stability of the compound. […] The crystalline form of scytonemin of the invention is stable.

[3] = Thermogravimetric/differential thermal analysis (TG/DTA), thermal decomposition; assay type: physicochemical; settings: argon, heating 15 ° C./minute, 3.7 mg
Experimental: 3.7 mg of the sample was weighed out into an alumina crucible and 34.6 mg of pure gold wire (99.999%) was added to balance the rod weight with the microbalance counterweight.
• Argon flow at 2 atm • Sample weight: 3.7 mg • Crucible: 100 μL Al2O3 • Reference crucible: Al2O3 • Temperature ramp:
Weight losses in successive stages were calculated based on the thermogravimetric curve, and the presence of exothermic and endothermic processes during sample heating were determined from the heat flow curve.

[4] = UV absorption, specific extinction in DMSO by spectrophotometer; assay type: physicochemical; settings: 1% by weight, 1 cm cuvette
Experimental: A scytonemin sample obtained according to Example 1 was dissolved in DMSO (dimethylsulfoxide) to a concentration of 1% by weight and subsequently, with a spectrophotometer used according to the standard procedures (manufacturer: Varian, model: CARY 100 Scan) absorbance was measured for two wavelengths (305 and 393 nm) in a cuvette with 1 cm thickness.

[5] = cited from earlier work

dispersion level ([1]; 0.5 mg in 1 g 2-octyldodecan-1-ol ODD (solution 5)): Relatively high dispersion level | dispersion level ([1]; 0.5 mg in 1 g SLP Emulsifier (solution 6)): Low dispersion level | dispersion level ([1]; 0.5 mg in 1 g glycerin (solution 3)): Low dispersion level | dispersion level ([1]; 0.5 mg in 1 g isohexadecane (solution 4)): High dispersion level | dispersion level ([1]; 0.5 mg in 1 g propylene glycol (solution 1)): High dispersion level | dispersion level ([1]; 0.5 mg in 1 g refined apricot oil (solution 2)): Very low dispersion level | absorbance spectra before and after the storage test [2]: identical | Maximum of weight loss (decomposition maximum) [3]: 380.3 °C | T range of decomposition [3]: 365.4-380.3 °C | Specific extinction/1% at 305 nm ([4]; 305 nm): 330 | Specific extinction/1% to 393 nm ([4]; 393 nm): 730
Substance: scytonemin
dispersion / dissolution in raw material base ([1]; 0.5 mg in 5 g glycerin+glycerol stearate+water+silica+alcohol (composition 7), stirred 5 min): did not dissolve but disintegrated into smaller particles | characteristic absorbance spectra after continuous UVA irradiation ([5]; 2 months, UVA 5 W/m2): practically unchanged | characteristic absorbance spectra after heating ([5]; heating to 60° C. for 2 months): practically unchanged
